# Assay results from patent US10344266B2, “Cell mass capable of serving as a primitive organ-like structure comprised of a plurality of cell types of somatic origin” (priority 2006, dated 2019).
# How the values were obtained:
# Type in all cases: cell-based, human
# TWIST-1 = assay: RT-PCR analysis (1) of cell mass, TWIST-1; conditions: in the presence of BIO, ascribed to relative decrease of hair papilla cells, FIG. 7
# Description: (§1) Hair papilla cells were prepared to P3 or more (with P1 indicating one round of subculturing) in the presence or absence of BIO loading, while keratinocytes were prepared up to and including P3.
# (§2) Each of the cells was diluted with each medium following trypsin treatment so as to obtain 1×10^5 cells.
# (§3) In the case of adding BIO (Calbiochem), the BIO was dissolved to 10 mM with dimethylsulfoxide (DMSO) and added to a concentration of 0.1 to 5 μM.
# (§4) 25 to 35 μl of each culture medium was dispensed onto the inside of the upper lid of a square culture dish measuring 10 cm on a side and mixed to prepare dome-shaped droplets of a suitable size.
# (§5) Three days later, the medium was replaced with the same medium as that used above.
# (§6) After culturing for an additional four days, a portion of the medium was subjected to RT-PCR analysis (1) as described below. All of the remaining media was replaced with medium under conditions of the absence of BIO.
# (§7) RNA was extracted from each sample using Trizol (Invitrogen). An equivalent of 200 ng of each RNA was reverse transcribed to cDNA with a reaction system consisting of 50 μl of RevTraACE (Toyobo). 1 μl of the resulting samples was applied to a PCR reaction in a 50 μl system using the primers listed below. […]
# SHH (Sonic Hedge Hog) = assay: RT-PCR analysis (1) of cell mass, SHH; conditions: in the presence of BIO (same in its absence), FIG. 7
# Description: as §1, §2, §3, §4, §5, §6, §7
# Wnt3A = Wnt3A RT-PCR, RT-PCR analysis (2) of cell mass; conditions: FIG. 8
# Description: Hair papilla cells were prepared to P3 (with P1 indicating one round of subculturing) in the presence of BIO loading, while keratinocytes were prepared up to and including P3.
# (§8) Each of the cells was diluted with each medium following trypsin treatment so as to obtain 3×10^3 cells.
# (§9) BIO (Calbiochem) was dissolved to 10 mM with dimethylsulfoxide (DMSO) and added to a concentration of 0.1 to 5 μM.
# as §4
# Three days later, the medium was replaced with the same medium as that used above. The samples were collected on the 7th day and submitted for RT-PCR analysis (2) as described below (“0 day” in FIG. 8). The medium used for the same remaining cells was replaced with medium under conditions of the absence of BIO to induce differentiation, after which the samples collected on the 3rd day were submitted for RT-PCR analysis (2) as described below (“3 days” in FIG. 8).
# RNA was extracted from the samples using Trizol (Invitrogen). […]
# 10 μl of the reaction solution was electrophoresed at 100 V in 2% agarose gel (Cosmobio)/TAE buffer. Target bands were detected after visualizing with ethidium bromide.
# Versican gene = assay: RT-PCR analysis (1) of cell mass, Versican; conditions: in the presence of BIO, ascribed to relative decrease of hair papilla cells, FIG. 7
# Description: as §1, §2, §3, §4, §5, §6, §7
# STAT-3 = assay: RT-PCR analysis (1) of cell mass, STAT-3; conditions: presence of BIO compared with absence, FIG. 7
# Description: as §1, §2, §3, §4, §5, §6, §7
# [1] = system: cell mass of hair papilla cells and epidermal keratinocytes; assay: Immunohistofluorescent staining of hanging-drop cell mass (hair papilla cells and keratinocytes)
# Description: 30% Advanced DMEM (Invitrogen), 2 mM L-glutamine, a mixture of penicillin and streptomycin (Invitrogen, 100-fold dilution) and 3.5 μl/50 ml of β-mercaptoethanol were mixed with Humedia KG-2 (Kurabo) at a ratio of 1:1.
# as §3, §1, §2, §4
# (§10) Three days later, the medium was replaced with the same medium as that used above. […]
# In the color version of this diagram, green coloring by vimentin antibody and red coloring by CD49f antibody can be distinguished, and each were able to be determined to be hair papilla cells and keratinocytes, respectively. […] After the cell masses formed following the addition of BIO, red-staining keratinocytes were determined to be growing in a regular manner in the form of branches within cell masses cultured in the absence of BIO. […]
# Lef-1 = assay: RT-PCR analysis (1) of cell mass, Lef-1; conditions: in the presence of BIO (also detected in its absence), FIG. 7
# Description: as §1, §2, §3, §4, §5, §6, §7
# [2] = system: cell masses prepared with hair papilla cells and outer root sheath cells; assay: Immunohistofluorescent staining of cell mass prepared with hair papilla cells and outer root sheath cells
# Description: Each of the cell masses obtained with the hanging drop method were fixed for 5 minutes with 0.1% paraformaldehyde and submitted for staining. In addition, a portion of the cell masses were embedded in OCT solution without fixing and prepared into frozen sections with a cryostat followed by immunohistostaining.
# Blocking was carried out for 6 hours with PBS(−) containing 13% bovine serum albumin (BSA).
# Each of the primary antibodies indicated in the following table were diluted by 1/200 with the aforementioned PBS(−) containing 13% bovine serum albumin (BSA), added to each sample and allowed to react for 4 hours at 4° C.
# The cells were washed three times with PBS(−) containing 0.02% Tween 20.
# Fluorescent secondary antibody (see Excel file) diluted by 1/200 with the aforementioned PBS(−) containing 13% bovine serum albumin (BSA) was added to each sample. In addition, the nuclei of the cells were stained blue with DAPI (4′-6-diamidino-2-phenylindole).
# Antibody to cytokeratin 14 (K14) expressed in epidermal keratinocytes and outer root sheath cells is used for the purpose of confirming that these cells have not differentiated to hair roots (red). Since AE13 monoclonal antibody, which specifically reacts to hair keratin (Lynch et al., J. Cell Biol., 103, 2593, 1986), recognizes 44K/46K acidic hair keratin dimer, it is used to mark differentiation into hair roots (green). […]
# Wnt10B = Wnt10B RT-PCR, RT-PCR analysis (3), quantitative PCR of cell mass; conditions: FIG. 9
# Description: Hair papilla cells were prepared to P3 (with P1 indicating one round of subculturing) in the absence of BIO loading, while outer root sheath cells were prepared up to and including P3.
# as §8, §9, §4, §10
# RNA was extracted from the samples using Trizol (Invitrogen). […] 4 μl of the resulting samples were applied to a quantitative PCR system (LightCycler System, Roche) in a 20 μl system using the primers listed below. […]
# All data was expressed as the relative expressed amount based on the expressed amount after 3 days in the case of not loading the cell mass with BIO. […] Accordingly, in this experimental system, differentiation of follicular epithelial cells (outer root sheath cells), and what is more, autonomous organogenesis were clearly determined to be induced by culturing in the presence of BIO followed by culturing after removing BIO.
compound,measurement,setting,value
"O=C1Nc2cc(Br)ccc2/C1=C1/Nc2ccccc2/C1=N\O [BIO, (2′Z,3′E)-6-bromoindirubin-3′-oxime]",expression of TWIST-1 gene,TWIST-1,expression appearing to decrease
same,expression of SHH gene,SHH (Sonic Hedge Hog),not detected
same,expression of Wnt3A,"Wnt3A; 3rd day after removal of BIO (""3 days"")",expression of Wnt3A was observed
same,expression of Wnt3A,"Wnt3A; cultured in the presence of BIO, 7th day (""0 day"")",not being observed at all
same,expression of Versican gene,Versican gene,expression appearing to decrease
same,expression of STAT-3 gene,STAT-3,detected prominently
same,"staining for the proliferation marker, K167, in the cell mass","[1]; cell mass formed by adding BIO 0.1 to 5 μM, central portion and branch-like end portion, FIG. 3",positive
same,staining by AE13 antibody (hair keratin),"[1]; hair papilla cells and epidermal keratinocytes, stimulated with BIO, no staining without BIO, FIG. 5",staining is observed in some cell masses
same,expression of Lef-1 gene,Lef-1,detected
same,immunostaining by Ber-EP4 antibody (hair buds),"[2]; hair papilla cells and outer root sheath cells stimulated with BIO, FIG. 6",clearly observed
same,staining by AE13 antibody (hair keratin),"[2]; hair papilla cells and outer root sheath cells, BIO stimulation versus absence of BIO, FIG. 5",considerably enhanced
same,"expression of Wnt10B, relative expressed amount",Wnt10B; after removing BIO (day 10 and day 14),increased over time
same,"expression of Wnt10B, relative expressed amount","Wnt10B; cultured in the presence of BIO (day 7), versus control cultured in the absence of BIO",about the same level as that of a control
